Patent US20230104936A1, “TRPML MODULATORS” (Casma Therapeutics, Inc., priority 2019, published 2023)

Test system: TFEB
Test: TFEB nuclear translocation assay, HeLa wt cells
Type: cell-based
Details: 2 hrs compound treatment, Table 1 does not say HeLa wt or TRPML1 KO
How it was run: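 HeLa wt or TRPML1 KO cells treated 2 hrs with compounds at 37° C, fixed in 4% PFA, immunostained with anti-TFEB plus Alexa 488 secondary and Hoechst. Imaged at ×20, four fields/well; read-out is nuclear/perinuclear-ring TFEB intensity ratio, reported as AC50.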

SMILES | AC50 (Homo sapiens, HeLa, 2 h) [nM] | AC50 [nM]
CC(C)(C)C(=O)N1CCN(c2ccccc2NS(=O)(=O)C2CCc3ccccc3C2)CC1 (stereo not drawn) [Compound A-583, N-{2-[4-(2,2-dimethylpropanoyl)piperazin-1-yl]phenyl}-1,2,3,4-tetrahydronaphthalene-2-sulfonamide] | ≥ 10000 | –
C[C@H]1COC[C@H](C)N1CC1CCN(c2c(F)cccc2NS(=O)(=O)c2ccc(S(C)(=O)=O)cc2)CC1 (relative stereo) [Compound A-838, trans-N-(2-(4-((3,5-dimethylmorpholino)methyl)piperidin-1-yl)-3-fluorophenyl)-4-(methylsulfonyl)benzenesulfonamide] | ≤ 2000 | –
CC(c1cccc(F)c1N1CCC(CN2C[C@@H](C)O[C@@H](C)C2)CC1)S(=O)(=O)c1ccc(N=S(C)(C)=O)cc1 (stereo partly drawn) [Compound A-1002, [(4-{1-[2-(4-{[(2R,6S)-2,6-dimethylmorpholin-4-yl]methyl}piperidin-1-yl)-3-fluorophenyl]ethanesulfonyl}phenyl)imino]dimethyl-λ^6-sulfanone] | ≥ 10000 | –
C[C@@H]1CN(CC2CCN(c3c(F)cccc3NS(=O)(=O)c3ccc(C(F)(F)C4CC4)cc3)CC2)C[C@H](C)O1 [Compound A-814, 4-(cyclopropyldifluoromethyl)-N-[2-(4-{[(2R,6S)-2,6-dimethylmorpholin-4-yl]methyl}piperidin-1-yl)-3-fluorophenyl]benzene-1-sulfonamide] | ≤ 2000 | –
COCC1(C)CCN(c2ccccc2NS(=O)(=O)Cc2ccccc2)CC1 [Compound A-532, N-{2-[4-(methoxymethyl)-4-methylpiperidin-1-yl]phenyl}-1-phenylmethanesulfonamide] | ≤ 2000 | –
CN(C)S(=O)(=O)c1ccc(S(=O)(=O)n2nc(C3CCN(c4c(F)cccc4F)CC3)c3c2CCNC3)cc1 [Compound A-533, 4-({3-[1-(2,6-difluorophenyl)piperidin-4-yl]-1H,4H,5H,6H,7H-pyrazolo[4,3-c]pyridin-1-yl}sulfonyl)-N,N-dimethylbenzene-1-sulfonamide] | 2010 to 8000 | –
C[C@H]1COC[C@H](C)N1C[C@H]1CCN(c2c(F)cccc2NS(=O)(=O)c2ccc(S(=O)(=O)N(C)C)cc2)C1 (relative stereo) [Compound A-896, N4-{2-[(3R)-3-{[3,5-dimethylmorpholin-4-yl]methyl}pyrrolidin-1-yl]-3-fluorophenyl}-N1,N1-dimethylbenzene-1,4-disulfonamide] | ≤ 2000 | –
COc1ccc(S(=O)(=O)Nc2ccccc2N2CCC(N(C)c3ccc(F)cc3F)C2)cc1 (stereo not drawn) [Compound A-201, N-(2-{3-[(2,4-difluorophenyl)(methyl)amino]pyrrolidin-1-yl}phenyl)-4-methoxybenzene-1-sulfonamide] | 2010 to 8000 | –
CC(c1cccc(F)c1N1CCCCC1)S(=O)(=O)c1ccc(S(=N)(=O)C(F)F)cc1 (single isomer, unassigned) [Compound A-938, (difluoromethyl)(4-((1-(3-fluoro-2-(piperidin-1-yl)phenyl)ethyl)sulfonyl)phenyl)(imino)-l6-sulfanone] | – | ≥ 10000
CC(c1cccc(F)c1N1CCCCC1)S(=O)(=O)c1ccc2c(c1)CCS2(=N)=O (single isomer, unassigned) [Compound A-960] | – | ≥ 10000
CN(C)S(=O)(=O)c1ccc(S(=O)(=O)Nc2ccccc2N2CCC(CCCN3CCOCC3)CC2)cc1 [Compound A-547, N1,N1-dimethyl-N4-(2-{4-[3-(morpholin-4-yl)propyl]piperidin-1-yl}phenyl)benzene-1,4-disulfonamide] | ≤ 2000 | –
CC(=O)NC1(c2ccc(Cl)cc2F)CCN(c2ccccc2NS(=O)(=O)c2ccc(S(=O)(=O)N(C)C)cc2)CC1 [Compound A-153, N-[4-(4-chloro-2-fluorophenyl)-1-{2-[4-(dimethylsulfamoyl)benzenesulfonamido]phenyl}piperidin-4-yl]acetamide] | 2010 to 8000 | –
CC(c1ccccc1N1CCN(Cc2ccccc2)CC1)S(=O)(=O)c1ccc(S(=O)(=O)N(C)C)cc1 (stereo not drawn) [Compound A-465, 4-((1-(2-(4-benzylpiperazin-1-yl)phenyl)ethyl)sulfonyl)-N,N-dimethylbenzenesulfonamide] | ≤ 2000 | –
CC(c1cccc(F)c1N1CCC(CN2C[C@@H](C)O[C@H](C)C2)CC1)S(=O)(=O)c1ccc(S(=O)(=O)N(C)C)cc1 (single isomer, unassigned) [Compound A-885, 4-[1-[2-(4-{[2,6-dimethylmorpholin-4-yl]methyl}piperidin-1-yl)-3-fluorophenyl]ethanesulfonyl]-N,N-dimethylbenzene-1-sulfonamide] | ≤ 2000 | –
C[C@@H]1CN(CC2CCN(c3c(F)cccc3NS(=O)(=O)c3ccc4c(c3)OC(C)(C)C4)CC2)C[C@H](C)O1 [Compound A-780, N-[2-(4-{[(2R,6S)-2,6-dimethylmorpholin-4-yl]methyl}piperidin-1-yl)-3-fluorophenyl]-2,2-dimethyl-2,3-dihydro-1-benzofuran-6-sulfonamide] | ≤ 2000 | –
CN(C)S(=O)(=O)c1ccc(S(=O)(=O)Nc2ccccc2N2CCC(C(F)(F)F)CC2)cc1 [Compound A-550, N1,N1-dimethyl-N4-{2-[4-(trifluoromethyl)piperidin-1-yl]phenyl}benzene-1,4-disulfonamide] | ≤ 2000 | –
COCC1(C)CCN(c2ccccc2NS(=O)(=O)Cc2ccccc2OC)CC1 [Compound A-595, N-{2-[4-(methoxymethyl)-4-methylpiperidin-1-yl]phenyl}-1-(2-methoxyphenyl)methanesulfonamide] | 2010 to 8000 | –
COC(=O)N1CCN(c2ccccc2NS(=O)(=O)c2ccc(S(=O)(=O)N(C)C)cc2)CC1 [Compound A-309, methyl 4-{2-[4-(dimethylsulfamoyl)benzenesulfonamido]phenyl}piperazine-1-carboxylate] | 2010 to 8000 | –
CN(C)S(=O)(=O)c1ccc(S(=O)(=O)Nc2cccc(Cl)c2N2CCN(C(=O)C(C)(C)C)CC2)cc1 [Compound A-352, N4-{3-chloro-2-[4-(2,2-dimethylpropanoyl)piperazin-1-yl]phenyl}-N1,N1-dimethylbenzene-1,4-disulfonamide] | 2010 to 8000 | –
COCC1(C)CCN(c2ccccc2NS(=O)(=O)c2ccc(C3CC3)cc2)CC1 [Compound A-621, 4-cyclopropyl-N-{2-[4-(methoxymethyl)-4-methylpiperidin-1-yl]phenyl}benzene-1-sulfonamide] | ≤ 2000 | –
CCS(=O)(=O)c1ccc(S(=O)(=O)Nc2ccccc2N2CCN(C(=O)C(C)(C)C)CC2)cc1 [Compound A-351, N-{2-[4-(2,2-dimethylpropanoyl)piperazin-1-yl]phenyl}-4-(ethanesulfonyl)benzene-1-sulfonamide] | ≥ 10000 | –
CN(C)S(=O)(=O)c1ccc(S(=O)(=O)N(C)c2ccccc2N2CCC(c3ccc(Cl)cc3F)CC2)cc1 [Compound A-104, N1-{2-[4-(4-chloro-2-fluorophenyl)piperidin-1-yl]phenyl}-N1,N4,N4-trimethylbenzene-1,4-disulfonamide] | ≤ 2000 | –
CC1(C)CC2(CCN(c3ccccc3NS(=O)(=O)c3ccc(C4CC4(F)F)cc3)CC2)CO1 (stereo not drawn) [Compound A-718, 4-(2,2-difluorocyclopropyl)-N-(2-{3,3-dimethyl-2-oxa-8-azaspiro[4.5]decan-8-yl}phenyl)benzene-1-sulfonamide] | ≤ 2000 | –
CCN1CCN(c2ccc(Cl)cc2NS(=O)(=O)c2ccc3c(c2)CCC3)CC1 [Compound A-289, N-[5-chloro-2-(4-ethylpiperazin-1-yl)phenyl]-2,3-dihydro-1H-indene-5-sulfonamide] | ≥ 10000 | –
